# Data as given in paper PMC10515483, “Structure–Reactivity Studies of 2-Sulfonylpyrimidines Allow Selective Protein Arylation” (Bioconjugate Chemistry, 2023).
# Experiments:
# [1] = GSH arylation rate constants (NMR; UV-vis for fast warheads); assay type: physicochemical; design: key to rate constant (k) for the reaction with GSH / k: NR = no reaction; conditions: for k: Table S8, rate constants obtained at pH = 7; for k change (vs ref): ratio to rate constant of 4q, acceleration (+) or deceleration (-); for k/kref / ΔΔG≠1exp: relative to 4q; for ΔΔG≠1exp: via -RTln(k/kref); for times less reactive than 4q: GSH; for reactivity with GSH (in words): up to 6 h
# Source text: We employed nuclear magnetic resonance (NMR) and UV–vis to quantify the reactivity of our 2-SP derivatives and other representative electrophiles (Figure 2) against cysteine. NMR allowed straightforward determination of reaction rate constants through dual monitoring of the consumption of the warhead and formation of the product by integration of their respective NMR signals (Figures S1–S3). It simultaneously provided a direct readout on reaction specificity and hydrolytic stability of the warhead. All measurements were carried out in KPi buffer in the presence of 5% d^6-dmso, which is generally well-tolerated by a wide range of proteins in in vitro studies. N-acetylcysteine methylester (NACME) and L-glutathione (GSH) are useful model cysteine nucleophiles for in vitro studies of electrophilic agents.[32] Mixing reference electrophile 2-methylsulfonylpyrimidine (4q) with NACME or GSH in a 1:10 ratio (pseudo-first-order conditions) allowed extraction of accurate and reproducible second order rate constants (k).
# Figure 3 In vitro determination of electrophilic reactivity of compounds. (A) NMR assay setup for warhead/GSH reaction rate constant determination and chemoselectivity monitoring, over a 6 h time scale. Purple bead = GSH. Hydrolytic stability was determined in the same way over 36 h. d^4-Trimethylsilylpropanoate (TMSP, blue box) was used as an internal standard for monitoring the warhead solubility. Second-order reaction rate constants (k) were obtained from their pseudo-first-order counterparts (k′), by time-dependent normalized integration of the disappearing warhead signals. […] (B) Experimental second-order rate constants (y axis, log10 scale) for the reaction of representative 2-SP derivatives (left, 11 out of ca. 40 examples) and previously reported heteroarylsulfones (right) with GSH in a KPi buffer, pH 7.0, 20 °C. All rate constants were calculated as an average of at least two independent measurements. Numerical values and standard deviations at both pH 7.0 and 6.5, along with a full list of 2-SPs and other electrophile types tested, are presented in Tables S2–S6 and Figure S4. The horizontal dashed line marks the reaction rate of 2-methylsulfonylpyrimidine at pH 7.0, as a reference when comparing with other reagents (see main text).
# To establish an accurate structure–reactivity profile of 2-SP reagents, we systematically determined their reaction rate constants for the arylation of GSH by NMR, at pH 7.0 and 6.5. This was a prerequisite to (i) quantify the influence of substitution on reaction rates; (ii) accurately assess the tunability and chemoselectivity of 2-SPs for cysteine arylation; (iii) determine the influence of pH on the reaction rates to further inform on the precise reaction mechanism; and (iv) benchmark the overall performance of 2-SPs with those of previously reported fast reacting heteroarylsulfones and other common cysteine reactive warheads (Figure 2C,D).
# p53-Y220C DBD = biological target: T1, p53-Y220C DBD (Homo sapiens, UniProt P04637, M133L/N239Y/N268D/V203A/Y220C); experiment: Protein arylation by ESI mass spectrometry; assay type: binding
# T1 construct: (residues 94-312); 6xHis/lipoyl domain/TEV protease cleavage site (N, cleaved yes); made in house; host or cells: E. coli C41
# Experimental: In mass spectrometry experiments, we incubated 50 μM purified p53-Y220C DBD in KPi buffer at varying pH’s (6.0–8.0), temperatures (0 and 20 °C), and equivalents of 2-SPs (20–100). Representative 2-SPs were selected to span a broad reactivity range to determine whether trends observed in GSH in vitro assays translate to relative rates of modification of solvent exposed cysteines in folded proteins. […] The same could also be achieved with only 20 equiv of reagent by increasing the temperature to 20 °C, or raising the pH to 8.0. This is an important result because late-stage protein functionalization with bromo- and iodo-(hetero)aromatic motifs is challenging and inaccessible by metal-catalyzed arylation methodologies due to dehalogenation and/or off-target specificity. The introduction of an iodo-(hetero)aromatic motif on the protein surface facilitates drastically the crystal structure resolution with a sharp variation of density. […] Overall, we observed good correlation between GSH and protein experiments.
# Figure 4 Biophysical and structural characterization of protein cysteine arylation by 2-SPs. […] Stoichiometry, reaction time/temperature, and pH are indicated in each case. X axis: m/z (Da). Y axis: normalized intensities as a percentage of the most intense peak. Middle: Structure of the modified Y220C mutant (green) superimposed onto the structure of the unmodified protein (gray, PDB entry 6SHZ)[40] showing the region around modified C182 (E) and C277 (F). Hydrogen bonds formed by the pyrimidine are highlighted as dashed yellow lines. 2Fo – Fc electron density maps are shown at a contour level of 1.3σ for segments of chain B including the modified residues C182 and C277. Bottom (F): Protein thermal stability (ΔTm, °C) of p53-Y220C, β-catenin ARD. and FGE, determined by DSF in the presence of 100 μM 2-SP derivatives. […]
# [2] = Solubility in KPi buffer by NMR with TMSP internal standard; conditions: 50 mM KPi aqueous buffer, pH 7, aqueous with cosolvent or surfactant or cyclodextrin, kinetic from dmso stock
# Source text: Stability and solubility assays
# TopSpin. Normalised integrations of the pyrimidine aromatic 1H signals in the starting material and
# product were plotted as a function of time (s), using the TMSP peak as standard for integral
# calibration/normalisation and monitoring of compound solubility, allowing extraction of pseudo first
# order reaction rate constants (k’). Second order rate constants (k) were back calculated from the ratio
# of the pseudo first counterparts and the concentration of thiol in solution.
# was confirmed by formation of a single S-arylated product (characteristic 2-alkylthioether signals),
# concomitant with formation of the sulfinic acid by -product (leaving group). Hydrolytic stability
# assessment was performed at pH 7.0 and pH 8.2 in a similar manner, in the absence of thiol.
# Chemoselectivity. Similarly, but replacing GSH by other amino acids , reference 2-
# methylsulfonylpyrimidine 4q in 50 mM KPi (pH 8.2) was incubated with 10 equivalents of either Boc-
# Lys-OH, L-ser-OMe, N-Ac-Tyr-OH or Proline were used.
# [3] = Hydrolytic stability in KPi buffer without thiol (NMR); assay type: physicochemical; conditions: for % degradation: over 12 hours, 50 mM KPi, footnote a: crashing out of solution, no degradation product; for hydrolysis in aqueous buffer (in words): buffer in the absence of GSH
# Experimental: NMR studies: rate constant determination and hydrolytic stability. 850 µL of 50 mM Kpi buffer solution (pH 8.2 or 7), 20 µL of the appropriate pyrimidine stock s olution (100 mM in DMSO -d6), 20 µL of TMSP stock solution (22.2 mM in DI water), 30 µL DMSO -d6, and 80 µL of GSH stock solution (0.25 M in DI water, reactivity only) were successively added/mixed at room temperature, final pH 7.0 or 6.5 (Table S1). 600 µL of this freshly prepared solution was poured into an NMR tube and immediately […]
# transferred to the NMR instrument for acquisition. 1H spectra (16 scans) were recorded every 10 minutes under water suppression conditions. Following acquisition, spectra were analysed using […]
# order reaction rate constants (k’).
# p53 = system: p53; design: method as in PMID 19411067; conditions: in vitro; cited from earlier work
# [4] = design: method as in PMID 11747461; conditions: cited from earlier work
# [5] = pH 6.5, by NMR, KPi buffer, 5% DMSO-d6
# [6] = pH 7.0, by NMR, KPi buffer, 5% DMSO-d6
melting point [°C],solubility [2] [µM],Compound,"rate constant (k) for the reaction with GSH [1, 5]","rate constant (k) for the reaction with GSH [1, 6]",k change (vs ref) ([1]; pH 7.0),other results
98,–,CSc1ncc(-c2ccccc2)cn1 [2p],NR,NR,–,–
104,–,CSc1ncc(I)cn1 [2u],NR,NR,–,–
251,–,CSc1ncc(C(=O)O)cn1 [2v],NR,NR,–,–
84,–,CSc1ncc([N+](=O)[O-])cn1 [2w],0.00025 ± 0.00016 M⁻¹ s⁻¹,0.0034 ± 0.0016 M⁻¹ s⁻¹,–,–
138,–,CS(=O)(=O)c1ncc(N)cn1 [4m],NR,NR,–,"second order rate constant k with GSH ([1]; pH 7.0, KPi buffer): < 5.0 × 10^–5 M^–1 s^–1"
–,–,COc1cnc(S(C)(=O)=O)nc1 [4n],NR,NR,–,"protein modification by ESI-MS (in words) (p53-Y220C DBD; 50 μM protein, all conditions tested, even after 4 h at 20 °C): could not detect any protein modification; second order rate constant k with GSH ([1]; pH 7.0, KPi buffer): < 5.0 × 10^–5 M^–1 s^–1"
–,≥ 2000,Cc1cnc(S(C)(=O)=O)nc1 [4o],NR,0.0017 ± 0.0015 M⁻¹ s⁻¹,-15 fold,k [1]: 0.0017 M⁻¹ s⁻¹; k/kref [1]: 0.068; ΔΔG≠1exp [1]: 1.6 kcal/mol; % degradation ([3]; pH 8.2): < 5%
–,≥ 2000,CS(=O)(=O)c1ncc(Cl)cn1 [4s],0.027 ± 0.012 M⁻¹ s⁻¹,0.19 ± 0.11 M⁻¹ s⁻¹,+8 fold,k [1]: 0.19 M⁻¹ s⁻¹; k/kref [1]: 7.6; ΔΔG≠1exp [1]: -1.2 kcal/mol; % degradation ([3]; pH 8.2): 7%
113,~130,CS(=O)(=O)c1ncc([N+](=O)[O-])cn1 [4w],–,–,"+1,880 fold","rate constant (k) for the reaction with GSH ([1]; pH 6.5, measured by UV titrations): 15 ± 0.4 M⁻¹ s⁻¹; rate constant (k) for the reaction with GSH ([1]; pH 7.0, measured by UV titrations): 47 ± 1 M⁻¹ s⁻¹; hydrolysis in aqueous buffer (in words) [3]: partial, slow hydrolysis"
128,≥ 2000,COC(=O)c1cnc(S(C)(=O)=O)nc1 [4y],–,–,"+396,000 fold","protein arylation by ESI-MS (in words) (p53-Y220C DBD; 20 equiv, pH 6.0, 0 °C): complete and clean double protein arylation; time to complete double arylation (p53-Y220C DBD; 20 equiv, pH 6.0, 0 °C): under 30 s; k [1]: 9900 M⁻¹ s⁻¹; second order rate constant k with GSH ([1]; pH 7.0, KPi buffer): ≈ 9900 M^–1 s^–1; k/kref [1]: 396000; ΔΔG≠1exp [1]: -7.65 kcal/mol; % degradation ([3]; pH 8.2): 100%"
–,–,C=C1C(=O)C2CCN1CC2 [APR-244-MQ],–,–,–,number of cysteines reacted (p53): up to nine
–,–,"N[C@@H](CCC(=O)N[C@@H](CS)C(=O)NCC(=O)O)C(=O)O [GSH, L-glutathione]",–,–,–,pKa of the sulfhydryl group [4]: 9.2
–,–,"COC(=O)[C@H](CS)NC(C)=O [NACME, N-acetylcysteine methylester]",–,–,–,pKa of the sulfhydryl group [4]: 8.3
–,≥ 2000,"CS(=O)(=O)c1nnnn1-c1ccccc1 [compound 7, 1-phenyl 5-methylsulfonyl tetrazole, reference compound]",–,–,+170 fold,"second order rate constant k with GSH ([1]; pH 7.0, KPi buffer): ≈ 4.3 M^–1 s^–1; % degradation ([3]; pH 7.0): < 5%; % degradation ([3]; pH 8.2): 8%"
–,≥ 2000,"CS(=O)(=O)c1nc2ccccc2s1 [compound 9, 2-Methysulfonylbenzothiazole, reference compound]",0.063 ± 0.023 M⁻¹ s⁻¹,0.23 ± 0.035 M⁻¹ s⁻¹,+9 fold,"k [1]: 0.23 M⁻¹ s⁻¹; second order rate constant k with GSH ([1]; pH 7.0, KPi buffer): ≈ 0.23 M^–1 s^–1; k/kref [1]: 9.2; ΔΔG≠1exp [1]: -1.31 kcal/mol; % degradation ([3]; pH 7.0): 15%; % degradation ([3]; pH 8.2): < 5%"
–,≥ 2000,"Cc1cc(C)c(C#N)c(S(C)(=O)=O)n1 [compound 11, 4,6-dimethyl-2-(methylsulfonyl)nicotinonitrile, reference compound]",0.00045 ± 5e-05 M⁻¹ s⁻¹,0.0023 ± 0.00025 M⁻¹ s⁻¹,-11 fold,times less reactive than 4q ([1]; pH 7.0): ca. 5 times
–,≥ 2000,"Cc1cc(C)c([N+](=O)[O-])c(S(C)(=O)=O)n1 [compound 12, 4,6-dimethyl-2-(methylsulfonyl)-3-nitropyridine, reference compound]",0.00075 ± 0.00025 M⁻¹ s⁻¹,0.0028 ± 0.00025 M⁻¹ s⁻¹,-9 fold,times less reactive than 4q ([1]; pH 7.0): ca. 5 times; k [1]: 0.0028 M⁻¹ s⁻¹; k/kref [1]: 0.11; ΔΔG≠1exp [1]: 1.29 kcal/mol; % degradation ([3]; pH 7.0): < 5%; % degradation ([3]; pH 8.2): < 5%
–,–,"COc1nc(OC)nc(S(C)(=O)=O)n1 [compound 19, 2,4-dimethoxy-6-(methylsulfonyl)-1,3,5-triazine]",–,–,–,k [1]: unstable; hydrolysis in aqueous buffer (in words) [3]: rapid hydrolysis in aqueous buffers or by trace/ambient moisture
–,–,"c1ccc(C2CO2)cc1 (centres unmarked) [compound 24, reference compound]",–,NR,–,reactivity with GSH (in words) ([1]; KPi buffer): none
–,–,"O=C(c1ccccc1)C(F)(F)F [compound 25, reference compound]",–,NR,–,reactivity with GSH (in words) ([1]; KPi buffer): none
–,–,"O=S(=O)(F)c1ccccc1 [compound 26, reference compound]",–,NR,–,reactivity with GSH (in words) ([1]; KPi buffer): none
–,–,"CC1(C)S[C@@H]2[C@H](N)C(=O)N2[C@H]1C(=O)O [compound 27, reference compound]",–,NR,–,reactivity with GSH (in words) ([1]; KPi buffer): none
